Patent publication US20050261290A1, “Novel compounds of proline and morpholine derivatives” (priority 2004, published 2005)

Target: human 11b-hsd-1 (Homo sapiens, UniProt P28845)
Test: Inhibition constant Ki of human 11b-hsd-1 (3H-cortisone to 3H-cortisol conversion, HPLC)
Format: biochemical
Conditions: for inhibition at 0.1 µM: 0.1 μM compound; for Ki: apparent Ki, read-out: Ki app

Chain of human 11b-hsd-1 (P28845 whole entry): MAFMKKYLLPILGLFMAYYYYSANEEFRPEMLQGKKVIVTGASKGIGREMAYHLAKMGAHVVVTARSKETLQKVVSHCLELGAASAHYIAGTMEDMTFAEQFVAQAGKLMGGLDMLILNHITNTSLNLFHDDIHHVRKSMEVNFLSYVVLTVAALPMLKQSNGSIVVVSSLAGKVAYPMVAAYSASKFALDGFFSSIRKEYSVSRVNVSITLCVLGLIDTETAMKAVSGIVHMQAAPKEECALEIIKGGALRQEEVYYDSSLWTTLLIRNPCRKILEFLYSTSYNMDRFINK

Row | Structure (SMILES) | inhibition at 0.1 µM | Ki
1 | CN(C(=O)[C@@H]1CSCN1Cc1ccc(Cl)cc1)C1CCCCC1 [Example 192] | 100% | 9.6 nM
2 | CN(C(=O)C1CCCCN1Cc1ccc(Cl)cc1)C1CCCCC1 (centres unmarked) [Example 193] | 100% | 14 nM
3 | CN(C(=O)[C@H]1CSCN1Cc1ccc(Cl)cc1)C1CCCCC1 [Example 194] | 86.2% | 25 nM
4 | CC(C)CN1CSC[C@H]1C(=O)N(C)C1CCCCC1 [Example 195] | 100% | 13 nM
5 | CC(C)CN1CSC[C@@H]1C(=O)N(C)C1CCCCC1 [Example 196] | 85.3% | 27 nM
6 | CCC1CCCCN1C(=O)[C@H]1CCCN1Cc1ccc(Cl)cc1 (some centres unmarked) [Example 197] | 73.2% | 50 nM
7 | CCC1CCCCN1C(=O)[C@H]1CSCN1Cc1ccc(Cl)cc1 (some centres unmarked) [Example 198] | 100% | 2.5 nM
8 | CCC1CCCCN1C(=O)C1CCCCN1Cc1ccc(Cl)cc1 (centres unmarked) [Example 199] | 80.2% | 32 nM
9 | CCC1CCCCN1C(=O)[C@H]1CSCN1CC(C)C (some centres unmarked) [Example 200] | 91.6% | 36 nM
10 | O=C(NC12CC3CC(CC(C3)C1)C2)[C@H]1CSCN1Cc1ccc(Cl)cc1 [Example 202] | 100% | 4.8 nM
11 | CC(C)CN1CCC[C@@H]1C(=O)NC12CC3CC(CC(C3)C1)C2 [Example 205] | 100% | 3.17 nM
12 | CC(C)CN1CCCCC1C(=O)NC12CC3CC(CC(C3)C1)C2 (centres unmarked) [Example 206] | 100% | 5.2 nM
13 | CC(C)CN1C[C@H](O)C[C@H]1C(=O)NC12CC3CC(CC(C3)C1)C2 [Example 207] | 92.1% | 11 nM
14 | CC(C)CN1CSC[C@@H]1C(=O)NC12CC3CC(CC(C3)C1)C2 [Example 208] | 100% | 1 nM
15 | CC(C)CN1CC[C@H](O)[C@H]1C(=O)NC12CC3CC(CC(C3)C1)C2 [Example 211] | 80.2% | 32 nM
16 | O=C(NCc1ccccc1F)[C@H]1CCCN1Cc1ccccc1 [Example 212] | 77.6% | 85 nM
17 | O=C(NCc1ccc(Cl)cc1)[C@H]1CCCN1Cc1ccccc1 [Example 213] | 78% | 120 nM
18 | O=C(NCc1ccc(F)cc1)[C@H]1CCCN1Cc1ccccc1 [Example 214] | 82.7% | 59 nM
19 | CCCN1CCC[C@@H]1C(=O)NCc1ccccc1 [Example 217] | 84.6% | 171 nM
20 | CCCN1CCC[C@@H]1C(=O)NCc1ccc(OC)cc1 [Example 218] | 91.1% | 2500 nM
21 | CC(C)CN1CCC[C@@H]1C(=O)NCc1ccccn1 [Example 219] | 86.6% | 168 nM
22 | CC(C)CN1CCC[C@@H]1C(=O)NCc1ccccc1F [Example 220] | 96.7% | 5.1 nM
23 | CC(C)CN1CCC[C@@H]1C(=O)NCc1ccc(Cl)cc1 [Example 221] | 95.7% | 5.9 nM
24 | CC(C)CN1CCC[C@@H]1C(=O)NCc1ccc(F)cc1 [Example 222] | 100% | 6.9 nM
25 | CC(C)CN1CCC[C@@H]1C(=O)NCc1cccc(Cl)c1 [Example 223] | 86.3% | 26 nM
26 | O=C(NCc1ccccc1)[C@H]1CCCN1CC1CC1 [Example 224] | 90% | 189 nM

Row | Structure (SMILES) | inhibition at 0.1 µM | Ki
27 | O=C(NCc1ccc(F)cc1)[C@H]1CCCN1CC1CC1 [Example 225] | 86.2% | 153 nM
28 | O=C(NCc1ccccc1)[C@H]1CCCN1CC1CCCC1 [Example 226] | 82.2% | 22 nM
29 | O=C(NCc1ccc(Cl)cc1)[C@H]1CCCN1CC1CCCC1 [Example 227] | 80.3% | 36 nM
30 | O=C(NCc1ccc(F)cc1)[C@H]1CCCN1CC1CCCC1 [Example 228] | 89.3% | 54 nM
31 | O=C(NCc1ccccc1F)[C@H]1CCCN1CCC(F)(F)F [Example 229] | 73.7% | 48 nM
32 | O=C(NCc1ccc(F)cc1)[C@H]1CCCN1Cc1ccccc1Cl [Example 232] | 71.5% | 47 nM
33 | O=C(NCc1ccc(F)cc1)[C@H]1CCCN1Cc1ccc(Cl)cc1 [Example 235] | 83.8% | 25 nM
34 | O=C(NCc1ccc(F)cc1F)[C@H]1CCCN1Cc1ccccc1 [Example 236] | 76.8% | 66 nM
35 | CC(C)CN1CCC[C@@H]1C(=O)NCc1cccc(F)c1 [Example 237] | 100% | 10.3 nM
36 | CC(C)CN1CCC[C@@H]1C(=O)NCc1ccc(F)cc1F [Example 238] | 88.4% | 16.3 nM
37 | CC(C)CN1CCC[C@@H]1C(=O)NCc1c(F)cccc1F [Example 239] | 97.6% | 5.62 nM
38 | O=C(NCc1cccc(F)c1)[C@H]1CCCN1CC1CCCC1 [Example 240] | 76.3% | 44 nM
39 | O=C(NCc1c(F)cccc1F)[C@H]1CCCN1CC1CCCC1 [Example 241] | 81.4% | 32 nM
40 | O=C(NCc1ccc(F)cc1F)[C@H]1CCCN1CCC(F)(F)F [Example 242] | 78.9% | 44 nM
41 | O=C(NCc1ccc(F)cc1F)[C@H]1CCCN1Cc1ccc(Cl)cc1 [Example 243] | 84.9% | 15 nM
42 | O=C(NCc1c(F)cccc1F)[C@H]1CCCN1Cc1ccc(Cl)cc1 [Example 244] | 87.1% | 18 nM
43 | COc1ccccc1CNC(=O)[C@H]1CCCN1Cc1ccccc1 [Example 245] | 84.6% | 17 nM
44 | Cc1ccccc1CNC(=O)[C@H]1CCCN1Cc1ccccc1 [Example 246] | 87.7% | 16 nM
45 | O=C(NCc1ccccc1Cl)[C@H]1CCCN1Cc1ccccc1 [Example 247] | 88% | 14 nM
46 | O=C(NC12CC3CC(CC(C3)C1)C2)[C@H]1CCCN1Cc1ccccc1 [Example 248] | 100% | 1.3 nM
47 | N#Cc1cccc(CN2CCC[C@@H]2C(=O)NC23CC4CC(CC(C4)C2)C3)c1 [Example 249] | 100% | 1 nM
48 | O=C(NC12CC3CC(CC(C3)C1)C2)[C@H]1CCCN1Cc1ccccn1 [Example 250] | 100% | 5.9 nM
49 | COc1ccccc1CNC(=O)[C@H]1CCCN1Cc1ccc(C#N)cc1 [Example 251] | 83.5% | 47 nM
50 | Cc1ccccc1CNC(=O)[C@H]1CCCN1Cc1ccc(C#N)cc1 [Example 252] | 82.6% | 52 nM
51 | N#Cc1ccc(CN2CCC[C@@H]2C(=O)NCc2ccccc2Cl)cc1 [Example 253] | 100% | 24 nM
52 | N#Cc1ccc(CN2CCC[C@@H]2C(=O)NC23CC4CC(CC(C4)C2)C3)cc1 [Example 254] | 100% | 1 nM

Row | Structure (SMILES) | inhibition at 0.1 µM | Ki
53 | COc1ccccc1CNC(=O)[C@H]1CCCN1CC(C)C [Example 255] | 100% | 8.6 nM
54 | Cc1ccccc1CNC(=O)[C@H]1CCCN1CC(C)C [Example 256] | 100% | 7 nM
55 | CC(C)CN1CCC[C@@H]1C(=O)NCc1ccccc1Cl [Example 257] | 100% | 2.1 nM
56 | Cc1cccc(CNC(=O)[C@H]2CCCN2CC(C)C)c1 [Example 258] | 90.1% | 24 nM
57 | Cc1ccc(CNC(=O)[C@H]2CCCN2CC(C)C)cc1 [Example 259] | 100% | 11 nM
58 | COc1cccc(CNC(=O)[C@H]2CCCN2CC(C)C)c1 [Example 260] | 89.6% | 16 nM
59 | COc1ccccc1CNC(=O)[C@H]1CCCN1CC1CCCC1 [Example 261] | 100% | 25 nM
60 | COc1cccc(CNC(=O)[C@H]2CCCN2CC2CCCC2)c1 [Example 262] | 76% | 60 nM
61 | COc1ccccc1CNC(=O)[C@H]1CCCN1CCC(F)(F)F [Example 263] | 77.5% | 62 nM
62 | Cc1ccccc1CNC(=O)[C@H]1CCCN1CCC(F)(F)F [Example 264] | 86.5% | 10 nM
63 | O=C(NCc1ccccc1Cl)[C@H]1CCCN1CCC(F)(F)F [Example 265] | 86% | 4.1 nM
64 | COc1ccccc1CNC(=O)[C@H]1CCCN1Cc1cccc(Cl)c1 [Example 266] | 77.9% | 57 nM
65 | COc1ccccc1CNC(=O)[C@H]1CCCN1Cc1ccc(Cl)cc1 [Example 267] | 100% | 12 nM
66 | Cc1ccccc1CNC(=O)[C@H]1CCCN1Cc1ccc(Cl)cc1 [Example 268] | 100% | 10 nM
67 | COc1ccccc1CNC(=O)[C@H]1CCCN1CCc1ccccc1 [Example 269] | 77.8% | 66 nM
68 | Cc1ccccc1CNC(=O)[C@H]1CCCN1CCc1ccccc1 [Example 270] | 84.7% | 35 nM
69 | O=C(NCc1ccccc1Cl)[C@H]1CCCN1CCc1ccccc1 [Example 271] | 83.8% | 26 nM
70 | CN(Cc1ccccc1)C(=O)[C@H]1COCCN1Cc1ccccc1 [Example 272] | 71.7% | 1 nM
71 | O=C(NCc1ccc(F)cc1)[C@H]1COCCN1Cc1ccccc1 [Example 274] | 78.4% | 2.6 nM
72 | N#Cc1cccc(CN2CCOC[C@@H]2C(=O)NC2C3CC4CC(C3)CC2C4)c1 (some centres unmarked) [Example 275] | 100% | 1.5 nM
73 | CC(C)CN1CCOC[C@@H]1C(=O)NCc1ccccc1 [Example 278] | 76% | 49.2 nM
74 | O=C(NC1C2CC3CC(C2)CC1C3)[C@H]1COCCN1CC1CC1 (some centres unmarked) [Example 279] | 100% | 3 nM
75 | O=C(NCc1ccc(F)cc1F)[C@H]1COCCN1Cc1ccccc1 [Example 280] | 81.6% | 49 nM
76 | CC(C)CN1CCOC[C@@H]1C(=O)NCc1ccc(F)cc1F [Example 281] | 84.9% | 48 nM
